Test results taken from patent publication US20050187409A1, “Inhibitors of RNase P proteins as antibacterial compounds” (priority 2003, published 2005).
≈ marks a conversion by molar mass, not a printed value. Where “and” joins values, the source holds several entries; their conditions need not be identical. Equal entries are not always repeated. Where two headings read alike, the source gives them in different places.

Legend:
[1] = molecular target: N. gonorrhea RNase P (M1 RNA + C5 protein) (Neisseria gonorrhoeae, UniProt Q5F4W3); experiment: Time resolved fluorescence (TRF) RNase P inhibition assay; format: biochemical; details: 30 min enzyme reaction, ptGLN substrate
From the text: The ability of compounds of the invention to inhibit RNase P enzymes can be assessed by standard techniques. For example, the cleavage of ptRNA^Gln by the enzyme N. Gonorrhea RNase P, can be monitored in the presence and absence of a candidate compound as described in the Example 15. The progress of the RNase P-mediated cleavage reaction can be assessed by measuring the […] hybridized to the cleaved substrate.
Time Resolved Fluorescence RNase P Inhibition Assay
96-well Nunc MaxiSorp FluoroNunc plates were coated with 50 μl/well of 1 μg/ml of streptavidin in base buffer (150 mM KCl, 5 mM MgCl2, 50 mM Tris, pH 7.6) and incubated overnight. The plates were washed using TRF.96 protocol, and then blocked with 150 μl of a 1 mg/ml BSA solution in base buffer and incubated with shaking for sixty minutes. The plates were then washed twice with base buffer plus 0.01% Tween20. 50 μl of 40 nM T17-bt (biotinylated DNA oligonucleotide complementary to the RNaseP substrate leader sequence used to capture intact RNaseP substrate) was then added to all wells, and the plates were incubated with shaking for 1 hr.
A 0.4 nM solution of N. gonorrhea M1 RNA was made from a 1 μM stock solution. A 0.5 nM solution of N. gonorrhea C5 protein is made by diluting a 10 μM stock. ΔUL-ptGLN UTP-bt (10 μM stock) was diluted into PA buffer for a concentration of 40 nM.
Compounds were serially diluted in DMSO from 20 mM stocks to 6, 2, 0.6, 0.2, and 0.06 mM dilutions. These titrations were then diluted (2 μl to 100) in PA buffer, and 12.5 μl of each concentration was added in duplicate to a 96-well V-bottom polypropylene plate. The highest concentration was put in row G and the lowest in row B. Rows A & H received 12.5 μl of DMSO/PA buffer.
The enzyme reaction was initiated in the V-bottom polypropylene plates containing compound dilutions by adding 12.5 μl of the N. gonorrhea M1 solution to rows A-G. PA buffer was added to row H. 12.5 μl of the C5 solution was added similarly to the M1 solutions. 12.5 μl of the substrate solution was then added to all wells. The plates were incubated for 30 minutes at which time 12.5 μl of stop buffer was added to all wells. (Stop buffer: 500 μg/ml polyC/50 nM SA-Eu in 335 mM MgCl2 PA buffer).
The T17-biotin-coated plate was washed three times, and 37.5 μl of 75 mM MgCl2 PA buffer was added to each well. After 30 minutes incubation with the stop buffer, 12.5 μl from all of the enzyme reaction wells was transferred to the T17 plates. The plates were then incubated for 1.5 hr at room temperature with shaking. The plates were washed three times and 40 μl of Delfia enhancement solution (Wallac Oy) was added to all wells. The plates were then read on the Victor 2 plate reader.

[2] = molecular target: T1, N. gonorrhoeae RNase P holoenzyme (Neisseria gonorrhoeae, UniProt Q5F4W3); experiment: biochemical; details: 32P-labelled pGln substrate, room temperature; read-out: N. gonorrhoeae Gel assay IC50(μM) (Example 16)
T1 sequence (Q5F4W3 1-121): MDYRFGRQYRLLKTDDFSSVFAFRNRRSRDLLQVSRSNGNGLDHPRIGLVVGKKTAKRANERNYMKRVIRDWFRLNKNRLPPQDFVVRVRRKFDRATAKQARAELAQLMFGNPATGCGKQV
Experimental: RNase P Inhibition Polyacrylamide Gel Assay
The substrate, the precursor of tRNA^Gln, (pGln), from Synechocystis (Pascual and Vioque, 1999), was synthesized in vitro from the corresponding cDNA by T7 RNA polymerase in the presence of α^32P-GTP. Each control RNase P reaction of 10 μl contained 50 mM Tris-HCl (pH 7.8), 10 mM MgCl2, 100 mM NH4Cl, 1 mM dithiothreitol, and 0.4-1.0 pmol pGln substrate, radiolabeled to a specific activity of 1000-10,000 cpm/pmol. The reaction mixture, containing 0.1-1 nM holoenzyme, was incubated for 5-60 min at room temperature (18-24° C.), and the reaction was terminated by addition of an equal volume of 40 mM EDTA/8 M urea. The samples were electrophoresed in denaturing 8% polyacrylamide gels. The activity was quantified by exposure of the gel to a phosphorimaging screen. For test reactions that require the addition of compounds, the RNA subunits were pre-incubated with compound for 10 min at room temperature in the presence of buffer, followed by addition of the protein subunit. After a further 10 minutes of incubation, the radiolabeled substrate was added, and the reaction initiated. Products were analyzed as just described. The IC50 was the concentration of compound that was required to inhibit RNase P activity by 50%.

S. pyogenes = experiment: Bacterial inhibition assay (growth, OD readout); format: cell-based; details: CAMHB-3% LHB medium, 35° C., 16-20 hours
Experimental: (§1) Compounds of the invention (see Table 5) were assayed for their ability to inhibit bacterial growth. Compounds were diluted from 10 mM DMSO stocks to 3 mM and 1 mM in DMSO. The compounds were further diluted from these stocks into saline for 200, 120, and 20 μM stocks. Control antibiotics were diluted similarly. Overnight cultures of bacteria were made in the following manner. N. gonorrhea was streaked onto a chocolate agar plate and incubated at 35° C./5% CO2. Rather than make an overnight culture of S. pyogenes, a loopful of S. pyogenes from a blood plate or a stock plate was used the following day for direct cell suspension.
(§2) On the following day bacteria were prepared by dilution into saline with O.D. […] readings taken to determine the concentration of the bacteria. CFUs (colony forming units) were determined using the formula: CFU/mL=OD625×(1.5×10^8 CFU/mL/OD McFarland std)×dilution. The four bacterial cultures were diluted initially to 5.5×10^7 CFU/mL. The bacteria were then further diluted into medium to 5.5×10^5 CFU/mL for S. pyogenes and 5.5×10^6 CFU/mL for N. gonorrhea. S. pyogenes and N. gonorrhea were grown in CAMHB-3% LHB medium. The bacteria were added one per plate at 200 μL per well. Compounds were added in 10 μL aliquots for final concentrations of 10, 3, and 1 μM in duplicate. Control antibiotics, penicillin for S. pyogenes and ciprofloxacin for N. gonorrhea, were added from 0.8 mg/ml to 0.003 mg/ml. Plates were incubated at 35° C. with O2 for 16-20 hours for S. pyogenes, and read at OD665 in a Victor2 plate reader. Plates were incubated at 35° C. with 5% CO2 for 24 hours for N. gonorrhea at which time 40 μL of MTS reagent is added per well and incubated for 1 hour in same incubator. The plates were read at OD490. Compounds were tested at 1 μM, 3 μM, and 10 μM concentrations. The results, which are expressed as a percentage of the control, were calculated using equation 2. In this equation, O.D. is optical density; (O.D. compounds+bacteria) is the optical density observed for bacteria grown in the presence of a compound of the invention; (O.D. blank) is the optical density in the absence of bacteria; and (O.D. bacteria) is the optical density observed for bacteria growing uninhibited. Other RNase P inhibitors may be tested similarly using any bacteria of interest. [formula]

N. gonorrhoeae = experiment: Bacterial inhibition assay (growth, MTS readout); format: cell-based; details: CAMHB-3% LHB medium, 35° C., 5% CO2, 24 hours
Experimental: as §1, §2

[3] = Cellular toxicity assay (MTS) on PBMC; format: cell-based, human; details: human, peripheral blood mononuclear cells (PBMC); 24 hours incubation, MTS reagent; read-out: PBMC's TC50
Experimental: Compounds of the invention (see Table 6) were assayed for cellular toxicity as follows. Whole blood was drawn from a volunteer, and the red cells were separated from the buffy coat cells by centrifugation over ficoll-paque. The resulting peripheral blood mononuclear cells (PBMC) were collected from the interface and washed extensively with PBS by centrifugation to remove platelets and cellular debris. The cells were then plated in 96-well tissue culture plates at a density of 5×10^5 cells per mL at 200 μL per well. After an hour incubation, the candidate compounds were added at the appropriate concentrations diluted from DMSO stocks into assay buffer (RPMI medium supplemented with 10% FCS). The cells were incubated at 37° C., 100% humidity and 5% CO2 for 24 hours at which time MTS reagent was added per the manufacturer's (Promega) instructions. After 2-3 hours incubation the optical density of the wells was read on a spectrophotometer. […] The data are evaluated using equation 2 as described in Example 17, where bacterial cells are replaced by PBMC cells in the measurements. The data describes the toxicity of these compounds to a representative human cell population (PBMC's).

[4] = read-out: N. gonorrhoeae TRF IC50(μM) (Example 15)

Row | SMILES | IC50 ([1]; N. gonorrhoeae TRF IC50(μM) (Example 15)) [µM] | IC50 [2] | MIC (S. pyogenes) [µM] | IC50 [1, 4] [µM] | MIC (N. gonorrhoeae) [µM] | MIC (S. pyogenes; Streptococcus pyogenes) [µM] | CC50 at 24 h [3] [µM] | MIC (N. gonorrhoeae; Neisseria gonorrhoeae) [µM] | S. pyogenes MIC(μM) (S. pyogenes)
1 | CC(=NNC(=N)N)c1cccc(NC(=O)c2cccc(-c3ccccc3)c2)c1 [MES 10915, Guanylhydrazone of N-(3-acetylphenyl)-3-biphenylcarboxamide] | 16 | 10 µM |  |  |  |  |  |  | 
2 | N=C1/C(=C/c2ccc(-c3ccc(C(=O)O)cc3)o2)C(=O)N=C2SC(Cc3cccs3)=NN12 [MES 110410] |  |  | >100 | 15 | 30 (≈ 13.9 µg/mL) |  |  |  | 
3 | O=C(O)c1ccc(-c2nc(-c3ccc(-c4nc(-c5ccc(C(=O)O)cc5)[nH]c4-c4ccccc4)cc3)c(-c3ccccc3)[nH]2)cc1 [MES 110417] |  |  | >100 | 10 | 30 (≈ 18.1 µg/mL) |  |  |  | 
4 | CC(=NNC(=N)N)c1cccc(NC(=O)[C@@H]2Cc3ccccc3CN2C(=O)c2cccc(C(C)=NNC(=N)N)c2)c1 [MES 10848, Bisguanylhydrazone of (S)-2-(3-acetylbenzoyl)-N-(3-acetylphenyl)tetrahydro-isoquinoline-3-carboxamide] |  | 6 µM |  | 3 |  | 10 (≈ 5.53 µg/mL) | > 100 | 100 (≈ 55.3 µg/mL) | 
5 | CC(=NNC(=N)N)c1cccc(NC(=O)[C@H](Cc2ccc(-c3ccccc3)cc2)NC(=O)c2ccccc2)c1 [MES 10910, Guanylhydrazone of (S)-1-benzoyl-N-(3-acetylphenyl) biphenylalaninamide] |  |  |  | 7 |  |  |  |  | 
6 | CC(=NNC(=N)N)c1cccc(NC(=O)[C@@H]2CCCN2C(=O)c2cccc(C(C)=NNC(=N)N)c2)c1 [MES 10926, Bisguanylhydrazone of (S)-1-(3-acetylbenzoyl)-N-(3-acetylphenyl) prolinamide] |  | 100 µM |  | 43 |  | 30 (≈ 14.7 µg/mL) | > 100 | 80 (≈ 39.2 µg/mL) | 
7 | CC(=NNC(=N)N)c1cccc(NC(=O)[C@H](CCc2ccccc2)NC(=O)c2cccc(I)c2)c1 [MES 10914, Guanylhydrazone of (S)-1-(3-iodobenzoyl)-N-(3-acetylphenyl) homophenyl-alaninamide] |  |  |  | 6 |  |  |  |  | 
8 | CC(=NNC(=N)N)c1ccc(NC(=O)Nc2ccc(C(C)=NNC(=N)N)cc2)cc1 [MES 10950, Bisguanylhydrazone of N,N′-bis(4-acetylphenyl)urea] |  | 7 µM |  | 6 |  | 10 (≈ 4.08 µg/mL) | > 100 | 30 (≈ 12.3 µg/mL) | 
9 | CC(=NNC(=N)N)c1ccc(C(=O)Nc2cccc(C(C)=NNC(=N)N)c2)cc1 [MES 10648, Bisguanylhydrazone of 4-acetyl-N-(3-acetylphenyl)benzamide] |  | 2 µM |  | 5 |  | 1 (≈ 0.393 µg/mL) | > 100 | 10 (≈ 3.93 µg/mL) | 
10 | O=C(O)c1ccc(-c2ccc(/C=C3\S/C(=N\c4ccccc4)N(c4ccccc4)C3=O)o2)cc1 [MES 110430] |  |  | >100 | 7 | 30 (≈ 14 µg/mL) |  |  |  | 
11 | N=C1/C(=C/c2ccc(-c3ccc(C(=O)O)cc3)o2)C(=O)N=C2SC(c3ccccc3)=NN12 [MES 110392] |  |  | >100 | 2 | 100 (≈ 44.2 µg/mL) |  |  |  | 
12 | CC(=NNC(=N)N)c1cccc(NC(=O)Nc2cccc(C(C)=NNC(=N)N)c2)c1 [MES 10949, Bisguanylhydrazone of N,N-bis(3-acetylphenyl)urea] |  | 30 µM |  | 6 |  | 30 (≈ 12.3 µg/mL) | > 100 | 100 (≈ 40.8 µg/mL) | 
13 | CC(=NNC(=N)N)c1ccc(NC(=O)c2ccc(C(C)=NNC(=N)N)cc2)cc1 [MES 10948, Bisguanylhydrazone of 4-acetyl-N-(4-acetylphenyl)benzamide] |  | 2 µM and 1 µM |  | 3 |  | 0.3 (≈ 0.118 µg/mL) | > 100 | 3 (≈ 1.18 µg/mL) | 
14 | CC(=O)Oc1cccc2ccc(/C=C/c3ccc(C(=O)O)cc3)nc12 [MES 110394] |  |  |  | 9 | 10 (≈ 3.33 µg/mL) |  |  |  | >100− μM
15 | CC(=NNC(=N)N)c1cccc(NC(=O)c2ccc(-c3ccccc3)cc2)c1 [MES 10938, Guanylhydrazone of N-(3-acetylphenyl)-4-biphenylcarboxamide] |  |  |  | 80 |  |  |  |  | 
